{"source": "patent US12578273B2", "about": "“Ph-reversible leuco-BODIPY probe for in situ visualization of extracellular vesicles and their secretion from living cells” (The Chinese University of Hong Kong, priority 2021, dated 2026)", "key": {"A549 cells": {"tested_on": "A549 cells", "test": "Cytotoxicity of the probe (alamarBlue cell viability)", "assay_type": "cell-based", "details": "2 μM, 0.1% DMSO, 12 h", "procedure": "(§1) FIGS. 28A-28C Cytotoxicity of the probe. Pre-seeded in 96-well plates, HEK293, HeLa, and A549 cells were incubated in complete DMEM containing different concentrations of leuco-BODIPY [dissolved in dimethyl sulfoxide (DMSO)] for 12 h. The alamarBlue reagent (Invitrogen) was used to test cell viability by measuring the optical absorbance at 570 nm and 600 nm by a Multiskan GO UV-absorbance microplate reader. Reported data represent mean±SD from three independent experiments.\n(§2) We studied the mechanism for the cellular uptake of our probe by a pharmacological approach."}, "HEK293 cells": {"tested_on": "HEK293 cells", "test": "Cytotoxicity of the probe (alamarBlue cell viability)", "assay_type": "cell-based", "details": "2 μM, 0.1% DMSO, 12 h", "procedure": "as §1, §2"}, "HeLa cells": {"tested_on": "HeLa cells", "test": "Cytotoxicity of the probe (alamarBlue cell viability)", "assay_type": "cell-based", "details": "2 μM, 0.1% DMSO, 12 h", "procedure": "as §1, §2"}, "[1]": {"tested_on": "A549 cells that express GFP-tagged CD81", "test": "Confocal imaging of EVs or precursor EVs (colocalization of BODIPY with GFP-tagged CD81)", "assay_type": "cell-based", "details": "30 min", "procedure": "(§3) Pre-seeded in 35-mm confocal dishes (SPL Life Sciences, Pocheon, South Korea), cells were grown to the desired confluence before transfection. The transfection medium, formulated in 1 mL of OptiMEM (Gibco, Waltham, MA), contains 7.5 μL of Lipofectamine 3000 (Invitrogen) and either 2.5 μg/mL GFP-CD81 or EGFP-tubulin-6 plasmids. After incubating the cells with the transfection medium for 4 h, the cells were switched to 2 mL of plasmid-free complete DMEM for 2 d. After that, the transfected cells were incubated with leuco-BODIPY for further confocal imaging.\n(§4) Confocal imaging of EVs or precursor EVs To prepare the stock of the probe for our cell-based experiments, BODIPY was pre-dissolved in 100% DMSO (2 mM). After dissolution, the probe predominantly assumes the leuco-BODIPY form, as evidenced by its light-yellow color. Cells that express marker proteins of interest (i.e., GFP-tagged CD81 or EGFP-tagged tubulin-6) were pre-seeded in 35-mm confocal dishes. After removing the culture medium, the transfected cells were incubated with 1 mL of 2 μM leuco-BODIPY [dissolved in phenol red-free DMEM (Gibco) with […] (Invitrogen) for solubilization] for 30 min. The EVs in the medium or precursor EVs inside cells were imaged under a Leica SP8 confocal microscope with a 63× objective. The excitation wavelengths of the GFP-tagged proteins and BODIPY were 488 nm and 575 nm, respectively. The emission wavelengths of the GFP-tagged proteins and BODIPY were 495-525 nm and 585-710 nm, respectively. All images were taken at the same laser settings.\n(§5) Then, we seeded HeLa, A549, or HEK293 cells that express GFP-tagged CD81 in a confocal dish and incubated the cells with phenol red-free medium containing 2 μM leuco-BODIPY and 0.1% DMSO for 30 min. Note that this probe is predominantly in its leuco-BODIPY form when dissolved in DMSO, as evidenced by its light-yellow color. We obtained confocal images of the cell-seeded medium without harvesting the EVs or rinsing the cells (FIGS. 2A, 30-31). Representative images of their extracellular space depict granular or spherical pockets of fluorescence from BODIPY (red) amidst a dark background. […] The fluorescent pockets of BODIPY are submicron-sized or micron-sized, larger than the reported sizes of exosomes (50-200 nm).^36 As the resolution limit of confocal microscopy may overestimate the size of EVs, we isolated EVs from the cell-seeded medium for nanoparticle tracking analysis (NTA; FIG. 2B). The hydrodynamic size distribution of the EVs lies between about 50 nm and about 400 nm, with peak EV diameters of 151 nm, 104 nm, and 156 nm for HeLa, A549, and HEK293 cells, respectively. As these peak EV sizes corroborate the typical sizes of exosomes, we conclude that the EVs detected are mostly exosomes, with a smaller portion of larger ectosomes, clustered exosomes, or extracellular MVBs (FIGS. 4A-4C).\n(§6) Next, we attempted to use our probe for imaging intracellular precursor EVs before their secretion to the extracellular milieu. Again, we added leuco-BODIPY (dissolved in DMSO) to culture medium seeded with HeLa, A549, or HEK293 cells that express GFP-tagged CD81 for 30 min (FIG. 3). […] Contrarily, the overlap between BODIPY and GFP-CD81 fluorescence in the cytoplasm is moderate, characterized by Pearson's colocalization coefficients of 0.72, 0.66, and 0.63 for HeLa, A549, and HEK293 cells, respectively. As a negative control, we captured confocal images of the three cell lines but without adding leuco-BODIPY to the medium."}, "[2]": {"tested_on": "HEK293 cells that express GFP-tagged CD81", "test": "Confocal imaging of EVs or precursor EVs (colocalization of BODIPY with GFP-tagged CD81)", "assay_type": "cell-based", "details": "30 min", "procedure": "as §3, §4, §5, §6"}, "[3]": {"tested_on": "HeLa cells that express GFP-tagged CD81", "test": "Confocal imaging of EVs or precursor EVs (colocalization of BODIPY with GFP-tagged CD81)", "assay_type": "cell-based", "details": "30 min", "procedure": "as §3, §4, §5, §6"}, "[4]": {"test": "pH-dependent spectroscopic properties (pH titration, absorption and fluorescence)", "assay_type": "physicochemical", "details": "weakly basic conditions (pH of about 7.4); PBS containing 50% ethanol", "procedure": "In each step of pH titration, small volumes (2-10 μL) of HCl at appropriate concentrations (0.1, 10^−2, or 10^−3 M) were pipetted directly into the measurement cell, followed by filling up with 2 mL of 1 μM dye-containing solution [either in a mixture of PBS/ethanol 1:1 (v/v) or 0.5% (v/v) DMSO]. The pH was monitored at 298 K using a digital pH meter (827 pH lab) equipped with a Biotrode (Metrohm, Herisau, Switzerland). Calibration of the instrument was performed with standard aqueous solutions of pH 4, 7, and 9 from Metrohm. Absorption and fluorescence measurements were carried out on an Agilent Cary 5000 spectrophotometer and a Horiba Jobin Yvon spectrometer (Nanolog FL3-2iHR), respectively.\nWe investigated the spectroscopic properties of the fluorescent probe as a function of pH in phosphate-buffered saline (PBS) containing 50% ethanol by UV-vis spectrophotometry and fluorimetry (FIGS. 21A-21F, 22-23)."}, "[5]": {"details": "extracellular space (CD81-enriched exosomes), 2 μM, no rinsing"}}, "data": [{"smiles": "CCOC(=O)C(=Cc1ccc2n1[B-](F)(F)n1c(C=C(C(=O)OCC)C(=O)OCC)ccc1C2(OC)c1ccncc1)C(=O)OCC", "note": "[leuco-BODIPY]", "values": [{"measurement": "cell viability", "setting": "A549 cells", "result": "did not severely reduce cell viability"}, {"measurement": "cell viability", "setting": "HEK293 cells", "result": "did not severely reduce cell viability"}, {"measurement": "cell viability", "setting": "HeLa cells", "result": "did not severely reduce cell viability"}, {"measurement": "Pearson's colocalization coefficient between BODIPY and CD81-GFP fluorescence", "setting": "[1]; [5]", "result": 0.85}, {"measurement": "Pearson's colocalization coefficient between BODIPY and GFP-CD81 fluorescence", "setting": "[1]; in the cytoplasm", "result": 0.66}, {"measurement": "Pearson's colocalization coefficient between BODIPY and GFP-CD81 fluorescence", "setting": "[1]; on the pseudopodia", "result": 0.90}, {"measurement": "Pearson's colocalization coefficient between BODIPY and CD81-GFP fluorescence", "setting": "[2]; [5]", "result": 0.94}, {"measurement": "Pearson's colocalization coefficient between BODIPY and GFP-CD81 fluorescence", "setting": "[2]; in the cytoplasm", "result": 0.63}, {"measurement": "Pearson's colocalization coefficient between BODIPY and GFP-CD81 fluorescence", "setting": "[2]; on the pseudopodia", "result": 0.86}, {"measurement": "Pearson's colocalization coefficient between BODIPY and CD81-GFP fluorescence", "setting": "[3]; [5]", "result": 0.92}, {"measurement": "Pearson's colocalization coefficient between BODIPY and GFP-CD81 fluorescence", "setting": "[3]; in the cytoplasm", "result": 0.72}, {"measurement": "Pearson's colocalization coefficient between BODIPY and GFP-CD81 fluorescence", "setting": "[3]; on the pseudopodia", "result": 0.94}, {"measurement": "new absorption band", "setting": "[4]", "result": "~360", "unit": "nm"}]}]}
